Values of other authors as cited in US20040248232A1, “Method for treating Alzheimer's dementia” (priority 2003, published 2004).

How the values were obtained:
purified rat cathepsin L = purified rat cathepsin L (Rattus norvegicus, UniProt P07154); settings: cited from earlier work
purified rat cathepsin B = purified rat cathepsin B (Rattus norvegicus, UniProt P00787); settings: at 10 uM; cited from earlier work
cathepsin K = target: T1, cathepsin K (Homo sapiens, UniProt P43235); settings: at micromolar levels; cited from earlier work
T1 sequence (P43235 115-329): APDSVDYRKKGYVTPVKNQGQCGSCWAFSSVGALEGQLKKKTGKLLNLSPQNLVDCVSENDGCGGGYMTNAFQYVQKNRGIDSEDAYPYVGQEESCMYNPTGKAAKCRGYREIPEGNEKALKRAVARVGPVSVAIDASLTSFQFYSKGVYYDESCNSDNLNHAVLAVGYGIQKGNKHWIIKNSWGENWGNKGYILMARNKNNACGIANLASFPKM

[1] = test system: cancer induced osteoporosis; settings: intravenous or p.o. administration, mice; cited from earlier work
Colon-26 cancer cells = settings: intravenous or p.o. administration, mice; cited from earlier work
[2] = test system: human melanoma cells A375; settings: intravenous or p.o. administration, mice; cited from earlier work
cathepsin S [3] = target: T2, cathepsin S (Homo sapiens, UniProt P25774); settings: at micromolar levels; cited from earlier work
[4] = target: T3, cathepsin L activity in liver (Mus musculus, UniProt P06797); settings: intraperitoneal injection, mice; cited from earlier work
T3 construct: host or cells: mouse liver (endogenous, in vivo dosing)

cathepsin C = cathepsin C (Homo sapiens, UniProt P53634); settings: at micromolar levels; cited from earlier work
cathepsin B activity = target: T4, cathepsin B activity (Mus musculus, UniProt P10605); settings: intraperitoneal injection, mice; cited from earlier work
T4 construct: host or cells: mouse (liver implied by the sentence), endogenous, in vivo dosing

[5] = target: T5, cathepsin L activity in DLD-1 cells (Homo sapiens, UniProt P07711); settings: cited from earlier work
T5 construct: host or cells: DLD-1 cells (endogenous)

cathespin B = cathespin B (Homo sapiens, UniProt P07858); settings: cited from earlier work
[6] = target: recombinant human cathepsin B (Homo sapiens, UniProt P07858); settings: cited from earlier work
cathepsin S [7] = target: T2, cathepsin S; settings: relative to recombinant human cathepsin B; cited from earlier work
cathepsin L = cathepsin L (Homo sapiens, UniProt P07711); settings: relative to recombinant human cathepsin B; cited from earlier work
Chain of cathepsin L (P07711 114-333, species assumed): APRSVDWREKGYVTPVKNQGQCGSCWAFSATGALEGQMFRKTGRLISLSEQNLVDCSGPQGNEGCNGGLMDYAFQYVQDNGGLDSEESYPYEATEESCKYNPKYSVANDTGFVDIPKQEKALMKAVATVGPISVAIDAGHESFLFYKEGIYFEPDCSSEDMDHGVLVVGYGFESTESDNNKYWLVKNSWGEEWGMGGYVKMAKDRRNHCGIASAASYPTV

T2 sequence (P25774 115-331, species assumed): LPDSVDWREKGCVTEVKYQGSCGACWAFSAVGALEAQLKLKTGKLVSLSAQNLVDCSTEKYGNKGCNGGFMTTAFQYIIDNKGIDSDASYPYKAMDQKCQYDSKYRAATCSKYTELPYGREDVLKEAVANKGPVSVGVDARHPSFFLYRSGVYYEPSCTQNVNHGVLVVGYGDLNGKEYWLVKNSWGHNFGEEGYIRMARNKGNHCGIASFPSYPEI
Chain of purified rat cathepsin L (P07154 114-334): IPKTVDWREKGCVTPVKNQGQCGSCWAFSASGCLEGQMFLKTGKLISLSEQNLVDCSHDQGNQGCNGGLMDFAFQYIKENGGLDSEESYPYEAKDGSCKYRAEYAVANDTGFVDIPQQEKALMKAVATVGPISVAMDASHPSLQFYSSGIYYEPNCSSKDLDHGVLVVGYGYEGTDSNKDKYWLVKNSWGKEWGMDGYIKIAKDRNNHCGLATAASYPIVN
T5 sequence (P07711 114-333): as the sequence (P07711 114-333, species assumed) above
T3 sequence (P06797 114-334): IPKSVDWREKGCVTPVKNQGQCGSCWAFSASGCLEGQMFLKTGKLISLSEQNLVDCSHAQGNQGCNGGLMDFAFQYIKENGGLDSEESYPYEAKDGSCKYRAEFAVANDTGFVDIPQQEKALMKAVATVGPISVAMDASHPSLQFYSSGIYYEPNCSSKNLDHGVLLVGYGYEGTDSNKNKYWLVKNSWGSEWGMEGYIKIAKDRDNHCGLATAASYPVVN
Chain of cathepsin C (P53634 25-463): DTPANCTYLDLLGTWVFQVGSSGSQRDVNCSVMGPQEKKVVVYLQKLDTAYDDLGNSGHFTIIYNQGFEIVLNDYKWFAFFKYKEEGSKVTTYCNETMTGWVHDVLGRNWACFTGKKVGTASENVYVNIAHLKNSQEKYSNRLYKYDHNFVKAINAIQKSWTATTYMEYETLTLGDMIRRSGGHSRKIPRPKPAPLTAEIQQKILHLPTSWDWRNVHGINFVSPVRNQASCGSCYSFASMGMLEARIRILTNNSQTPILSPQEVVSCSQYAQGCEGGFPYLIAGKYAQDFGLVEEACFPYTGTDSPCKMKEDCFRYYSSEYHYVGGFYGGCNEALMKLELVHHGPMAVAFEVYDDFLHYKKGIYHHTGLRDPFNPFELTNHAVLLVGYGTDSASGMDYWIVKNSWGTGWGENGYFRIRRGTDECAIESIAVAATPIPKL
Chain of purified rat cathepsin B (P00787 80-333): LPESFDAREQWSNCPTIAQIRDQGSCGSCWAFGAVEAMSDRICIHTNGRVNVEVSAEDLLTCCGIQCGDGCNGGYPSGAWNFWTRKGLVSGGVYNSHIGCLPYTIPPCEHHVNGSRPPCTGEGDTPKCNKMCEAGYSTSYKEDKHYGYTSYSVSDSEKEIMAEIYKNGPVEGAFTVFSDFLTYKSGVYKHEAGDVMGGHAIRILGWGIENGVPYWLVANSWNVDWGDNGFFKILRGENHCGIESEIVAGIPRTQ
T4 sequence (P10605 80-333): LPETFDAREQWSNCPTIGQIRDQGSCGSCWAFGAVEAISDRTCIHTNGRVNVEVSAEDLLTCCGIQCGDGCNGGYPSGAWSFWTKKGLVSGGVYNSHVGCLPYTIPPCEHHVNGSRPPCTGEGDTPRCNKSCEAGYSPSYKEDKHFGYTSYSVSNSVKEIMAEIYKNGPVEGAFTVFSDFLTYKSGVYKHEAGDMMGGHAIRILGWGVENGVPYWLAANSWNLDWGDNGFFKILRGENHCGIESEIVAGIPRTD

Structure (SMILES): CN(C)C(=O)[C@H](Cc1ccccc1)NC(=O)C1OC1C(=O)NCCc1ccccn1 (stereo in doubt) [CLIK-148]
- inhibition of purified rat cathepsin L activity (purified rat cathepsin L; at 1 uM): completely inhibited
- level at which purified rat cathepsin L activity is inhibited (purified rat cathepsin L): submicromolar levels
- effect on purified rat cathepsin B activity (purified rat cathepsin B): no effect
- activity on cathepsin K (cathepsin K): minimal activities
- cancer induced osteoporosis [1]: blocked cancer induced osteoporosis
- bone metastasis of Colon-26 cancer cells (Colon-26 cancer cells): blocked bone metastasis
- bone metastasis of human melanoma cells A375 [2]: blocked bone metastasis
- activity on cathepsin S (cathepsin S [3]): minimal activities
- cathepsin L activity in liver [4]: dose dependently inhibited
- activity on cathepsin C (cathepsin C): minimal activities
- cathepsin B activity (cathepsin B activity): no effect

Structure (SMILES): CC(C)C[C@H](NC(=O)[C@H]1CCCN1C#N)C(=O)OCc1ccccc1 [1-cyano-(D)-prolylleucine benzyl ester]
- cathepsin L activity in DLD-1 cells [5]: completely inhibited
- activity on cathespin B (cathespin B): minimal activity

Structure (SMILES): Cc1cccc(C[C@H](NC(=O)c2ccc(F)cc2F)C(=O)N[C@@H](C#N)COCc2cccc(C(=O)O)c2)c1 [N-[2-[(3-Carboxyphenyl)methoxyl-1-(S)-cyanoethyl]-3-methyl-N-(2,4-difluorobenzoyl)-L-phenylalaninamide]
- recombinant human cathepsin B activity [6]: inhibit
- fold less potent in blocking cathepsin S than cathepsin B (cathepsin S [7]): approximately 100 fold
- fold less potent in blocking cathepsin L than cathepsin B (cathepsin L): approximately 100 fold
